{"source": "patent US9302999B2", "about": "“Substituted triazoles as herbicides” (E. I. DU PONT DE NEMOURS AND COMPANY, priority 2012, dated 2016)", "format_in_all_cases": "in vivo", "key": {"Oilseed Rape": {"system": "Oilseed Rape", "assay": "Test C preemergence: oilseed rape", "conditions": "31 g ai/ha, scale 0 (no effect) to 100 (complete control)"}, "[1]": {"system": "speedwell (bird's-eye speedwell, Veronica persica)", "assay": "Test D pre-/postemergence: speedwell", "conditions": "Preemergence", "procedure,_shortened": "(§1)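 Visual ratings from 0 (no effect) to 100 (complete control) were made 14–21 days after treatment, relative to controls. Applications were preemergence to seeds in silt loam, or postemergence to 2–18 cm (1–4 leaf) plants in peat-based medium. Compounds were formulated in a surfactant-containing non-phytotoxic solvent.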"}, "[2]": {"system": "lambsquarters (Chenopodium album)", "assay": "Test D pre-/postemergence: lambsquarters", "procedure,_shortened": "as §1"}, "[3]": {"system": "windgrass (Apera spica-venti)", "assay": "Test D pre-/postemergence: windgrass", "procedure,_shortened": "as §1"}, "[4]": {"system": "radish, wild (wild radish, Raphanus raphanistrum)", "assay": "Test D pre-/postemergence: radish, wild", "procedure,_shortened": "as §1"}, "[5]": {"system": "arrowleaf sida (Sida rhombifolia)", "assay": "Test F pre-/postemergence: arrowleaf sida", "procedure,_shortened": "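Seeds were sown in silt loam soil and sprayed preemergence with test chemical in a non-phytotoxic solvent mixture containing surfactant; postemergence treatments went onto plants 2 to 18 cm tall (1- to 4-leaf stage) grown in peat moss/vermiculite medium. After 14 to 21 days in a greenhouse, injury was rated visually against controls, 0 (no effect) to 100 (complete control).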"}, "[6]": {"system": "nutsedge, yellow (yellow nutsedge, Cyperus esculentus)", "assay": "Test F pre-/postemergence: nutsedge, yellow", "conditions": "Preemergence", "excerpt": "Seeds of plant species selected from corn (Zea mays), soybean (Glycine max), velvetleaf (Abutilon theophrasti), lambsquarters (Chenopodium album), poinsettia, wild (wild poinsettia, Euphorbia heterophylla), pigweed, palmer (palmer pigweed, Amaranthus palmeri), waterhemp (common waterhemp, Amaranthus rudis), surinam grass (Brachiaria decumbens), crabgrass, Brazil (Brazilian crabgrass, Digitaria horizontalis), panicum, fall (fall panicum Panicum dichotomiflorum), crabgrass, large (large crabgrass, Digitaria sanguinalis), foxtail, giant (giant foxtail, Setaria faberii), foxtail, green (green foxtail Setaria viridis), goosegrass (Eleusine indica), ragweed (common ragweed, Ambrosia elatior), barnyardgrass (Echinochloa crus-galli), sandbur (southern sandbur, Cenchrus echinatus), arrowleaf sida (Sida rhombifolia), ryegrass, Italian (Italian ryegrass, Lolium multiflorum), dayflower, VA (Virginia (VA) dayflower, Commelina virginica), field bindweed (Convolvulus arvensis), cocklebur (common cocklebur, Xanthium strumarium), morningglory (Ipomoea coccinea), nightshade (eastern black nightshade, Solanum ptycanthum), kochia (Kochia scoparia), nutsedge, yellow (yellow nutsedge, Cyperus esculentus), johnsongrass (Sorghum halepense), smartweed (ladysthumb smartweed, Polygonum persicaria), and beggarticks (hairy beggarticks, Bidens pilosa), were planted into a silt loam soil and treated preemergence with test chemicals formulated in a non-phytotoxic solvent mixture which included a surfactant. At the same time, plants selected from these crop and weed species and also pigweed (Amaranthus retroflexus), waterhemp_RES1 (ALS/Triazine resistant common waterhemp, Amaranthus rudis) and waterhemp_RES2 (ALS/HPPD resistant common waterhemp, Amaranthus rudis) were planted in pots containing a planting medium comprising spaghnum peat moss, vermiculite, wetting agent and starter nutrients treated with postemergence applications of some of the test chemicals formulated in the same manner. Plants ranged in height from 2 to 18 cm for postemergence treatments (1- to 4-leaf stage).\nTreated plants and controls were maintained in a greenhouse for 14 to 21 days, after which time all species were compared to controls and visually evaluated. Plant response ratings, summarized in Table E, are based on a scale of 0 to 100 where 0 is no effect and 100 is complete control. A dash (-) response means no test result."}, "[7]": {"conditions": "16 g ai/ha, scale 0 to 100, 0 no effect, 100 complete control"}, "[8]": {"conditions": "31 g ai/ha, scale 0 to 100, 0 no effect, 100 complete control"}, "[9]": {"conditions": "Postemergence, 31 g ai/ha, scale 0 to 100 (0 no effect, 100 complete control)"}, "[10]": {"conditions": "Postemergence, 62 g ai/ha, scale 0 to 100 (0 no effect, 100 complete control)"}, "[11]": {"conditions": "Postemergence, 125 g ai/ha, scale 0 to 100, 0 no effect, 100 complete control"}, "[12]": {"conditions": "Postemergence, 16 g ai/ha, scale 0 to 100"}, "[13]": {"conditions": "Preemergence, 16 g ai/ha, scale 0 to 100, 0 no effect, 100 complete control"}, "[14]": {"conditions": "Preemergence, 31 g ai/ha, scale 0 to 100, 0 no effect, 100 complete control"}, "[15]": {"conditions": "Preemergence, 62 g ai/ha, scale 0 to 100"}, "[16]": {"conditions": "Preemergence, 125 g ai/ha, scale 0 to 100"}, "[17]": {"conditions": "Postemergence, 31 g ai/ha, scale 0 to 100"}}, "data": [{"smiles": "CCOc1nn(-c2ccc(C(F)(F)F)cc2)nc1Cc1ccnc(C(F)(F)F)c1", "note": "[Compound 164, 4-[[5-ethoxy-2-[4-(trifluoromethyl)phenyl]-2H-1,2,3-triazol-4-yl]methyl]-2-(trifluoromethyl)pyridine]", "values": [{"measurement": "Plant response rating, Oilseed Rape", "setting": "Oilseed Rape", "result": 5}]}, {"smiles": "CCCc1nn(-c2ccc(F)cc2)nc1Oc1ccnc(C(F)(F)F)c1", "note": "[Compound 168]", "values": [{"measurement": "Plant response rating, Oilseed Rape", "setting": "Oilseed Rape", "result": 100}]}, {"smiles": "CCCc1nn(-c2ccc(C(F)(F)F)cc2)nc1Oc1ccnc(C(F)(F)F)c1", "note": "[Compound 170]", "values": [{"measurement": "Plant response rating, Oilseed Rape", "setting": "Oilseed Rape", "result": 95}]}, {"smiles": "CCCc1nn(-c2ccc(F)cc2F)nc1Oc1ccnc(C(F)(F)F)c1", "note": "[Compound 179]", "values": [{"measurement": "Plant response rating, Oilseed Rape", "setting": "Oilseed Rape", "result": 80}]}, {"smiles": "CCc1nn(-c2ccc(C(F)(F)F)c(F)c2)nc1Oc1ccnc(C(F)(F)F)c1", "note": "[Compound 183]", "values": [{"measurement": "Plant response rating, Oilseed Rape", "setting": "Oilseed Rape", "result": 60}]}, {"smiles": "CCOc1nn(-c2ccc(Cl)cc2)nc1Cc1ccnc(C(F)(F)F)c1", "note": "[Compound 188]", "values": [{"measurement": "Plant response rating, Oilseed Rape", "setting": "Oilseed Rape", "result": 20}]}, {"smiles": "CCOc1nn(-c2ccc(F)cc2)nc1Cc1ccnc(C(F)(F)F)c1", "note": "[Compound 196, 4-[[5-ethoxy-2-(4-fluorophenyl)-2H-1,2,3-triazol-4-yl]methyl]-2-(trifluoromethyl)pyridine]", "values": [{"measurement": "Plant response rating, Speedwell", "setting": "[1]; [7]", "result": 5}, {"measurement": "Plant response rating, Speedwell", "setting": "[1]; [8]", "result": 100}, {"measurement": "Plant response rating, Speedwell", "setting": "[1]; 62 g ai/ha, scale 0 to 100", "result": 100}, {"measurement": "Plant response rating, Speedwell", "setting": "[1]; 125 g ai/ha, scale 0 to 100", "result": 100}, {"measurement": "Plant response rating: Lambsquarters", "setting": "[2]; [9]", "result": 90}, {"measurement": "Plant response rating: Lambsquarters", "setting": "[2]; [10]", "result": 90}, {"measurement": "Plant response rating: Lambsquarters", "setting": "[2]; [11]", "result": 95}, {"measurement": "Plant response rating, Lambsquarters", "setting": "[2]; [12]", "result": 85}, {"measurement": "Plant response rating, Lambsquarters", "setting": "[2]; [13]", "result": 55}, {"measurement": "Plant response rating, Lambsquarters", "setting": "[2]; [14]", "result": 65}, {"measurement": "Plant response rating, Lambsquarters", "setting": "[2]; [15]", "result": 100}, {"measurement": "Plant response rating, Lambsquarters", "setting": "[2]; [16]", "result": 100}, {"measurement": "Plant response rating: Windgrass", "setting": "[3]; [10]", "result": 95}, {"measurement": "Plant response rating: Windgrass", "setting": "[3]; [11]", "result": 95}, {"measurement": "Plant response rating, Windgrass", "setting": "[3]; [12]", "result": 60}, {"measurement": "Plant response rating, Windgrass", "setting": "[3]; [17]", "result": 75}, {"measurement": "Plant response rating, Windgrass", "setting": "[3]; [13]", "result": 20}, {"measurement": "Plant response rating, Windgrass", "setting": "[3]; [14]", "result": 100}, {"measurement": "Plant response rating, Windgrass", "setting": "[3]; [15]", "result": 100}, {"measurement": "Plant response rating, Windgrass", "setting": "[3]; [16]", "result": 100}, {"measurement": "Plant response rating: Radish, Wild", "setting": "[4]; [9]", "result": 100}, {"measurement": "Plant response rating: Radish, Wild", "setting": "[4]; [10]", "result": 100}, {"measurement": "Plant response rating: Radish, Wild", "setting": "[4]; [11]", "result": 100}, {"measurement": "Plant response rating, Radish, Wild", "setting": "[4]; [12]", "result": 65}, {"measurement": "Plant response rating, Radish, Wild", "setting": "[4]; [13]", "result": 50}, {"measurement": "Plant response rating, Radish, Wild", "setting": "[4]; [14]", "result": 20}, {"measurement": "Plant response rating, Radish, Wild", "setting": "[4]; [15]", "result": 70}, {"measurement": "Plant response rating, Radish, Wild", "setting": "[4]; [16]", "result": 100}, {"measurement": "Plant response rating, Arrowleaf Sida", "setting": "[5]; Postemergence, 8 g ai/ha, scale 0 to 100", "result": 80}, {"measurement": "Plant response rating, Arrowleaf Sida", "setting": "[5]; [12]", "result": 90}, {"measurement": "Plant response rating, Arrowleaf Sida", "setting": "[5]; [17]", "result": 90}, {"measurement": "Plant response rating, Arrowleaf Sida", "setting": "[5]; Postemergence, 62 g ai/ha, scale 0 to 100", "result": 95}, {"measurement": "Plant response rating, Arrowleaf Sida", "setting": "[5]; Postemergence, 125 g ai/ha, scale 0 to 100", "result": 95}, {"measurement": "Plant response rating, Arrowleaf Sida", "setting": "[5]; Preemergence, 8 g ai/ha, scale 0 to 100, 0 no effect, 100 complete control", "result": 0}, {"measurement": "Plant response rating, Arrowleaf Sida", "setting": "[5]; [13]", "result": 0}, {"measurement": "Plant response rating, Arrowleaf Sida", "setting": "[5]; [14]", "result": 15}, {"measurement": "Plant response rating, Arrowleaf Sida", "setting": "[5]; [15]", "result": 15}, {"measurement": "Plant response rating, Arrowleaf Sida", "setting": "[5]; [16]", "result": 15}, {"measurement": "Plant response rating, Nutsedge, Yellow", "setting": "[6]; 8 g ai/ha, scale 0 to 100, 0 no effect, 100 complete control", "result": 0}, {"measurement": "Plant response rating, Nutsedge, Yellow", "setting": "[6]; [7]", "result": 0}, {"measurement": "Plant response rating, Nutsedge, Yellow", "setting": "[6]; [8]", "result": 0}, {"measurement": "Plant response rating, Nutsedge, Yellow", "setting": "[6]; 125 g ai/ha, scale 0 to 100", "result": 75}]}]}
